Experimental data published in patent US9725445B2, “Cycloalkyl nitrile pyrazolo pyridones as Janus kinase inhibitors” (Merck Sharp & Dohme Corp., priority 2013, dated 2017).
pIC50: −log10 of the molar value.

What was measured:
JAK1 = JAK1 (Homo sapiens (Human), UniProt P23458); test: Jak biochemical HTRF assay, JAK1; details: HTRF biochemical assay, recombinant GST-tagged catalytic domain; read-out: JAK1 IC50
JAK2 = JAK2 (Homo sapiens (Human), UniProt O60674); test: Jak biochemical HTRF assay, JAK2; details: HTRF biochemical assay, recombinant GST-tagged catalytic domain; read-out: JAK2 IC50
JAK2, sequence (O60674 849-1124): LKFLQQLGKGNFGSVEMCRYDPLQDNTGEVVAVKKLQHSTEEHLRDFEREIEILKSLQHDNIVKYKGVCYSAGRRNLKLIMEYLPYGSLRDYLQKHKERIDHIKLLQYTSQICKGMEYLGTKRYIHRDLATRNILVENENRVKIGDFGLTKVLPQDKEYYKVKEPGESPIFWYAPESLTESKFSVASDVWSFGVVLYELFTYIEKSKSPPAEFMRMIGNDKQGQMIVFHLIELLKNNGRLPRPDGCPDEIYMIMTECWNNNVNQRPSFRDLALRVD

JAK1, sequence (P23458 875-1153): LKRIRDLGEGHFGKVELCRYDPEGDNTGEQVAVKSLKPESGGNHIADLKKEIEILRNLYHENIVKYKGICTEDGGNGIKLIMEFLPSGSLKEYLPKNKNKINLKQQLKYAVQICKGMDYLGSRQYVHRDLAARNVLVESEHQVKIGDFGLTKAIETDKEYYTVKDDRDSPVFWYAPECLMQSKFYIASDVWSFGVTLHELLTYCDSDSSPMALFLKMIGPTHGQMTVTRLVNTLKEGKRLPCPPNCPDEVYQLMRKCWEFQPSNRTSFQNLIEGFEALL

pIC50 (JAK1)	pIC50 (JAK2)	SMILES
10.09	9.21	N#C[C@H]1CCCC[C@@H]1n1nc(Nc2ccc3c(c2)CN(C2CCCCC2)C3=O)c2c(=O)[nH]ccc21 [Example 15-34, (1S,2S)-2-{3-[(2-cyclohexyl-1-oxo-2,3-dihydro-1H-isoindol-5-yl)amino]-4-oxo-4,5-dihydro-1H-pyrazolo[4,3-c]pyridin-1-yl}cyclohexanecarbonitrile]
8.30	7.80	CC1(C)OCC(C)(c2cccc(Nc3nn([C@H]4CCCC[C@@H]4C#N)c4cc[nH]c(=O)c34)c2)O1 (stereo partly drawn) [Example 3-38, (1S,2S)-2-{4-Oxo-3-[3-(2,2,4-trimethyl-[1,3]dioxolan-4-yl)-phenylamino]-4,5-dihydro-pyrazolo[4,3-c]pyridin-1-yl}-cyclohexanecarbonitrile]
9.35	8.82	CC(C)(C)OC(=O)NCc1ccc(Nc2nn([C@H]3CCCC[C@@H]3C#N)c3cc[nH]c(=O)c23)cc1 [Example 3-32, tert-butyl [4-({1-[(1S,2S)-2-cyanocyclohexyl]-4-oxo-4,5-dihydro-1H-pyrazolo[4,3-c]pyridin-3-yl}amino)benzyl]carbamate]
9.96	9.48	CN(C)S(=O)(=O)c1ccc(Nc2nn([C@H]3CCCC[C@@H]3C#N)c3cc[nH]c(=O)c23)cc1 [Example 3-6, 4-({1-[(1S,2S)-2-cyanocyclohexyl]-4-oxo-4,5-dihydro-1H-pyrazolo[4,3-c]pyridin-3-yl}amino)-N,N-dimethylbenzenesulfonamide]
8.68	8.24	CN(C)C(=O)c1ccc(Nc2nn([C@H]3CCCC[C@@H]3C#N)c3cc[nH]c(=O)c23)cc1C1CC1 [Example 3-69, 4-({1-[(1S,2S)-2-cyanocyclohexyl]-4-oxo-4,5-dihydro-1H-pyrazolo[4,3-c]pyridin-3-yl}amino)-2-cyclopropyl-N,N-dimethylbenzamide]
8.80	7.54	CC(C)(C)[S@@+]([O-])N[C@@H](c1cccc(Nc2nn([C@H]3CCCC[C@@H]3C#N)c3cc[nH]c(=O)c23)c1)C(F)(F)F [Example 3-41, N-{(1S)-1-[3-({1-[(1S,2S)-2-cyanocyclohexyl]-4-oxo-4,5-dihydro-1H-pyrazolo[4,3-c]pyridin-3-yl}amino)phenyl]-2,2,2-trifluoroethyl}-2-methylpropane-2-sulfinamide]
9.62	8.40	CC1(O)CN([C@H]2CC[C@H](n3nc(Nc4ccc(Cl)cc4)c4c(=O)[nH]ccc43)[C@@H](C#N)C2)C1 [Example 5-22, (1S,2S,5S)-2-(3-((4-chlorophenyl)amino)-4-oxo-4,5-dihydro-1H-pyrazolo[4,3-c]pyridin-1-yl)-5-(3-hydroxy-3-methylazetidin-1-yl)cyclohexanecarbonitrile]
9.74	8.68	Cc1cn(Cc2cccc(Nc3nn([C@H]4CCCC[C@@H]4C#N)c4cc[nH]c(=O)c34)c2)nn1 [Example 3-37, (1S,2S)-2-[3-({3-[(4-methyl-1H-1,2,3-triazol-1-yl)methyl]phenyl}amino)-4-oxo-4,5-dihydro-1H-pyrazolo[4,3-c]pyridin-1-yl]cyclohexanecarbonitrile]
9.33	9.35	CC(C)N1Cc2cc(Nc3nn([C@H]4CCCC[C@@H]4C#N)c4cc[nH]c(=O)c34)ccc2C1C (single isomer, unassigned) [Example 19-2, (1S,2S)-2-(3-(((R or S)-2-isopropyl-1-methylisoindolin-5-yl)amino)-4-oxo-4,5-dihydro-1H-pyrazolo[4,3-c]pyridin-1-yl)cyclohexanecarbonitrile]
10.15	9.32	CC(C)N1Cc2cc(Nc3nn([C@H]4CCCC[C@@H]4C#N)c4cc[nH]c(=O)c34)ccc2S1(=O)=O [Example 3-79, (1S,2S)-2-(3-{[2-(1-methylethyl)-1,1-dioxido-2,3-dihydro-1,2-benzisothiazol-5-yl]amino}-4-oxo-4,5-dihydro-1H-pyrazolo[4,3-c]pyridin-1-yl)cyclohexanecarbonitrile]
